Experiment [1] relates to foxtail, green (green foxtail, Setaria viridis). Kind of experiment: Test E pre-/postemergence: foxtail, green. The class given is in vivo. Particulars: Preemergence, scale 0 to 100. The source says:
(§1) Seeds of plant species selected from corn (Zea mays), soybean (Glycine max), velvetleaf (Abutilon theophrasti), lambsquarters (Chenopodium album), poinsettia, wild (wild poinsettia, Euphorbia heterophylla), pigweed, palmer (palmer pigweed, Amaranthus palmeri), waterhemp (common waterhemp, Amaranthus rudis), smartweed (ladysthumb smartweed, Polygonum persicaria), surinam grass (Brachiaria decumbens), crabgrass, large (large crabgrass, Digitaria sanguinalis), crabgrass, Brazil (Brazilian crabgrass, Digitaria horizontalis), panicum, fall (fall panicum, Panicum dichotomiflorum), foxtail, giant (giant foxtail, Setaria faberii), foxtail, green (green foxtail, Setaria viridis), goosegrass (Eleusine indica), johnsongrass (Sorghum halepense), ragweed (common ragweed, Ambrosia elation), barnyardgrass (Echinochloa crus-galli), sandbur (southern sandbur, Cenchrus echinatus), arrowleaf sida (Sida rhombifolia), ryegrass, Italian (Italian ryegrass, Lolium multiflorum), dayflower, (VA) (Virginia dayflower, Commelina virginica), field bindweed (Convolvulus arvensis), cocklebur (common cocklebur, Xanthium strumarium), morningglory (Ipomoea coccinea), nightshade (eastern black nightshade, Solanum ptycanthum), kochia (Kochia scoparia), nutsedge, yellow (yellow nutsedge, Cyperus esculentus) and beggarticks (hairy beggarticks, Bidens pilosa) were planted into a silt loam soil and treated preemergence with test chemicals formulated in a non-phytotoxic solvent mixture which included a surfactant. At the same time, plants selected from these crop and weed species were planted in pots containing a growing medium comprising spaghnum peat moss, vermiculite, wetting agent and starter nutrients and treated with postemergence applications of some of the test chemicals formulated in the same manner. Plants ranged in height from 2 to 18 cm for postemergence treatments (1- to 4-leaf stage).
(§2) Treated plants and controls were maintained in a greenhouse for 14 to 21 days, after which time all species were compared to controls and visually evaluated. Plant response ratings, summarized in Table E, are based on a scale of 0 to 100 where 0 is no effect and 100 is complete control. A dash (-) response means no test result.

Experiment [2] deals with arrowleaf sida (Sida rhombifolia). The experiment in a line: Test E pre-/postemergence: arrowleaf sida. The format is in vivo. To be noted: scale 0 to 100.
Source text: as §1, §2

In experiment [3] the test system is goosegrass (Eleusine indica). The experiment in a line: Test F pre-/postemergence: goosegrass. The class given is in vivo. To be noted: Preemergence.
Source text: (§3) Seeds of plant species selected from corn (Zea mays), soybean (Glycine max), velvetleaf (Abutilon theophrasti), lambsquarters (Chenopodium album), poinsettia, wild (wild poinsettia, Euphorbia heterophylla), pigweed, palmer (palmer pigweed, Amaranthus palmeri), waterhemp (common waterhemp, Amaranthus rudis), surinam grass (Brachiaria decumbens), crabgrass, Brazil (Brazilian crabgrass, Digitaria horizontalis), panicum, fall (fall panicum Panicum dichotomiflorum), crabgrass, large (large crabgrass, Digitaria sanguinalis), foxtail, giant (giant foxtail, Setaria faberii), foxtail, green (green foxtail Setaria viridis), goosegrass (Eleusine indica), ragweed (common ragweed, Ambrosia elatior), barnyardgrass (Echinochloa crus-galli), sandbur (southern sandbur, Cenchrus echinatus), arrowleaf sida (Sida rhombifolia), ryegrass, Italian (Italian ryegrass, Lolium multiflorum), dayflower, VA (Virginia (VA) dayflower, Commelina virginica), field bindweed (Convolvulus arvensis), cocklebur (common cocklebur, Xanthium strumarium), morningglory (Ipomoea coccinea), nightshade (eastern black nightshade, Solanum ptycanthum), kochia (Kochia scoparia), nutsedge, yellow (yellow nutsedge, Cyperus esculentus), johnsongrass (Sorghum halepense), smartweed (ladysthumb smartweed, Polygonum persicaria), and beggarticks (hairy beggarticks, Bidens pilosa), were planted into a silt loam soil and treated preemergence with test chemicals formulated in a non-phytotoxic solvent mixture which included a surfactant. At the same time, plants selected from these crop and weed species and also pigweed (Amaranthus retroflexus), waterhemp_RES1 (ALS/Triazine resistant common waterhemp, Amaranthus rudis) and waterhemp_RES2 (ALS/HPPD resistant common waterhemp, Amaranthus rudis) were planted in pots containing a planting medium comprising spaghnum peat moss, vermiculite, wetting agent and starter nutrients treated with postemergence applications of some of the test chemicals formulated in the same manner. Plants ranged in height from 2 to 18 cm for postemergence treatments (1- to 4-leaf stage).
as §2

The subject of experiment [4] is surinam grass (Brachiaria decumbens). Kind of experiment: Test F pre-/postemergence: surinam grass. The format is in vivo. To be noted: Preemergence.
Source text: as §3, §2

Experiment [5] relates to waterhemp (common waterhemp, Amaranthus rudis). Kind of experiment: Test F pre-/postemergence: waterhemp. The class given is in vivo.
Source text: as §3, §2

The next experiment has as its system Oilseed Rape. Kind of experiment: Test C postemergence: oilseed rape. The format is in vivo, Brassica napus. The source says: (§4) Seeds of plant species selected from blackgrass (Alopecurus myosuroides), bromegrass, downy (downy bromegrass, Bromus tectorum), foxtail, green (green foxtail, Setaria viridis), ryegrass, Italian (Italian ryegrass, Lolium multiflorum), winter wheat (Triticum aestivum), wild oat (Avena fatua), galium (catchweed bedstraw, Galium aparine), bermudagrass (Cynodon dactylon), surinam grass (Brachiaria decumbens), cocklebur (common cocklebur, Xanthium strumarium), corn (Zea mays), large crabgrass (Digitaria sanguinalis), woolly cupgrass (Eriochloa villosa), foxtail, giant (giant foxtail, Setaria faberii), goosegrass (Eleusine indica), johnsongrass (Sorghum halepense), kochia (Kochia scoparia), lambsquarters (Chenopodium album), morningglory (Ipomoea coccinea), nightshade (eastern black nightshade, Solanum ptycanthum), nutsedge, yellow (yellow nutsedge, Cyperus esculentus), pigweed (Amaranthus retroflexus), ragweed (common ragweed, Ambrosia elation), soybean (Glycine max), common (oilseed) sunflower (Helianthus annuus), Russian thistle (Salsola kali) and velvetleaf (Abutilon theophrasti) were planted into a blend of loam soil and sand and treated preemergence with test chemicals formulated in a non-phytotoxic solvent mixture which included a surfactant.
(§5) At the same time, plants selected from these crop and weed species and also barley (winter barley, Hordeum vulgare), canarygrass (Phalaris minor), chickweed (common chickweed, Stellaria media) windgrass (Apera spica-venti) and deadnettle (henbit deadnettle, Lamium amplexicaule) were planted in pots containing Redi-Earth® planting medium (Scotts Company, 14111 Scottslawn Road, Marysville, Ohio 43041) comprising spaghnum peat moss, vermiculite, wetting agent and starter nutrients and treated with postemergence applications of test chemicals formulated in the same manner. Plants ranged in height from 2 to 18 cm (1- to 4-leaf stage) for postemergence treatments.
(§6) Treated plants and controls were maintained in a greenhouse for 13 to 15 days, after which time all species were compared to controls and visually evaluated. Plant response ratings, summarized in Table C, are based on a scale of 0 to 100 where 0 is no effect and 100 is complete control. A dash (-) response means no test result.

The subject of a further experiment is Waterhemp. Kind of experiment: Test C postemergence: waterhemp. The format is in vivo, Amaranthus rudis.
Source text: as §4, §5, §6

Setting [6] is: 16 g ai/ha, scale 0 to 100 (0 no effect, 100 complete control).
The mark [7] stands for this setting: 31 g ai/ha, scale 0 to 100 (0 no effect, 100 complete control).
Where [8] appears, read: Preemergence, 16 g ai/ha, scale 0 to 100 (0 no effect, 100 complete control).
Where [9] appears, read: Preemergence, 31 g ai/ha, scale 0 to 100 (0 no effect, 100 complete control).
Setting [10] is: Preemergence, 125 g ai/ha, scale 0 to 100.
[11] abbreviates: 125 g ai/ha, scale 0 to 100, 0 no effect, 100 complete control.
[12] abbreviates: 250 g ai/ha, scale 0 to 100 (0 no effect, 100 complete control).

Molecules are shown by their SMILES.

Take `Cc1nn(-c2ccc(F)cc2)nc1Cc1ccnc(C(F)(F)F)c1` [Compound 16, 4-[[2-(4-fluorophenyl)-5-methyl-2H-1,2,3-triazol-4-yl]methyl]-2-(trifluoromethyl)pyridine]: the “Plant response rating: Foxtail, Green” value in experiment [1] (8 g ai/ha) is 60; in experiment [1] (16 g ai/ha) it was 90; in experiment [1] (31 g ai/ha), 90; in experiment [1] (62 g ai/ha), 100; in experiment [1] (125 g ai/ha), 100. Besides, the “Plant response rating: Arrowleaf Sida” value was determined as 0 in experiment [2] (Preemergence, 8 g ai/ha); 0 in experiment [2] (Preemergence, 16 g ai/ha); 0 in experiment [2] (Preemergence, 31 g ai/ha); 0 in experiment [2] (Preemergence, 62 g ai/ha); 35 in experiment [2] (Preemergence, 125 g ai/ha).
With `Cc1nn(-c2ccc(C(F)(F)F)cc2)nc1Cc1ccnc(C(F)(F)F)c1` [Compound 47, 4-[[5-methyl-2-[4-(trifluoromethyl)phenyl]-2H-1,2,3-triazol-4-yl]methyl]-2-(trifluoromethyl)pyridine], the “Plant response rating: Foxtail, Green” value in experiment [1] (16 g ai/ha) amounted to 85; in experiment [1] (31 g ai/ha), 100; in experiment [1] (62 g ai/ha), 100; in experiment [1] (125 g ai/ha) it was 100; in experiment [1] (250 g ai/ha) it was 100. Besides, the “Plant response rating: Arrowleaf Sida” value in experiment [2] (Postemergence, 250 g ai/ha) was determined as 85; in experiment [2] (Postemergence, 16 g ai/ha) it was 50; in experiment [2] (Postemergence, 31 g ai/ha), 60; in experiment [2] (Postemergence, 62 g ai/ha) it was 70; in experiment [2] (Postemergence, 125 g ai/ha), 80; in experiment [2] (Preemergence, 16 g ai/ha), 0. Besides, the “Plant response rating: Arrowleaf Sida” value is on record as 20 in experiment [2] (Preemergence, 31 g ai/ha); 40 in experiment [2] (Preemergence, 62 g ai/ha); 60 in experiment [2] (Preemergence, 125 g ai/ha); 95 in experiment [2] (Preemergence, 250 g ai/ha).
Regarding `Cc1nn(-c2ccc(F)cc2)nc1Oc1ccnc(C(F)(F)F)c1` [Compound 129, 4-[[2-(4-fluorophenyl)-5-methyl-2H-1,2,3-triazol-4-yl]oxy]-2-(trifluoromethyl)pyridine], the “Plant response rating: Foxtail, Green” value in experiment [1] (8 g ai/ha) amounted to 0; in experiment [1] (16 g ai/ha) it was 60; in experiment [1] (31 g ai/ha), 100; in experiment [1] (62 g ai/ha), 100; in experiment [1] (125 g ai/ha) it was 100. Besides, the “Plant response rating: Arrowleaf Sida” value in experiment [2] (Preemergence, 8 g ai/ha) is listed as 0; in experiment [2] (Preemergence, 16 g ai/ha), 0; in experiment [2] (Preemergence, 31 g ai/ha), 0; in experiment [2] (Preemergence, 62 g ai/ha) it was 30; in experiment [2] (Preemergence, 125 g ai/ha) it was 30.
With `Fc1ccc(-n2nc(Cc3ccnc(C(F)(F)F)c3)c(OCC(F)(F)F)n2)cc1` [Compound 142], the “Plant response rating, Goosegrass” value in experiment [3] (setting [6]) worked out at 40; in experiment [3] (setting [7]), 70; in experiment [3] (62 g ai/ha, scale 0 to 100), 100; in experiment [3] (125 g ai/ha, scale 0 to 100), 100. Further, the “Plant response rating, Surinam Grass” value in experiment [4] (setting [6]) worked out at 5; in experiment [4] (setting [7]), 5; in experiment [4] (125 g ai/ha, scale 0 to 100) it was 60. Moreover, the “Plant response rating, Waterhemp” value worked out at 98 in experiment [5] (setting [8]), 98 in experiment [5] (setting [9]) and 100 in experiment [5] (setting [10]).
On to `Cc1nn(-c2ccc(F)c(F)c2)nc1Oc1ccnc(C(F)(F)F)c1` [Compound 145], for which the “Plant response rating, Waterhemp” value stood at 90 in experiment [5] (Postemergence, 8 g ai/ha, scale 0 to 100); 90 in experiment [5] (Postemergence, 16 g ai/ha, scale 0 to 100); 95 in experiment [5] (Postemergence, 31 g ai/ha, scale 0 to 100); 95 in experiment [5] (Postemergence, 62 g ai/ha, scale 0 to 100); 95 in experiment [5] (Postemergence, 125 g ai/ha, scale 0 to 100).
Turning to `CCCc1nn(-c2ccc(F)cc2)nc1Cc1ccnc(C(F)(F)F)c1` [Compound 153], the “Plant response rating, Goosegrass” value is on record as 80 in experiment [3] (setting [6]); 95 in experiment [3] (setting [7]); 98 in experiment [3] (62 g ai/ha, scale 0 to 100); 100 in experiment [3] (125 g ai/ha, scale 0 to 100); 100 in experiment [3] (250 g ai/ha, scale 0 to 100). Further, the “Plant response rating, Oilseed Rape” value with Oilseed Rape (setting [11]) came to 90. For the same compound, the “Plant response rating, Surinam Grass” value in experiment [4] (setting [6]) is reported as 0; in experiment [4] (setting [7]) it was 5; in experiment [4] (125 g ai/ha, scale 0 to 100), 75; in experiment [4] (250 g ai/ha, scale 0 to 100), 98. Further, the “Plant response rating, Waterhemp” value in experiment [5] (setting [8]) stood at 65; in experiment [5] (setting [9]), 100; in experiment [5] (setting [10]) it was 100; in experiment [5] (Preemergence, 250 g ai/ha, scale 0 to 100), 100; with Waterhemp (setting [11]), 98.
Consider `CCc1nn(-c2ccc(F)cc2)nc1Oc1ccnc(C(F)(F)F)c1` [Compound 166], for which the “Plant response rating, Oilseed Rape” value in the experiment with Oilseed Rape (setting [11]) was 5. Besides, the “Plant response rating, Waterhemp” value in the experiment on Waterhemp (setting [11]) was 98.
Turning to `CCCc1nn(-c2ccc(C(F)(F)F)c(F)c2)nc1Oc1ccnc(C(F)(F)F)c1` [Compound 185], the “Plant response rating, Oilseed Rape” value worked out at 50 in the experiment with Oilseed Rape (setting [11]) and 55 in the experiment with Oilseed Rape (setting [12]). In addition, the “Plant response rating, Waterhemp” value in the experiment with Waterhemp (setting [11]) was 95; in the experiment with Waterhemp (setting [12]), 100.

Source of the values: patent US9302999B2, “Substituted triazoles as herbicides” (E. I. DU PONT DE NEMOURS AND COMPANY, priority 2012, dated 2016).
